Values of other authors as cited in US9856441B2, “Soap bar” (COLGATE-PALMOLIVE COMPANY, priority 2013, dated 2018).

- maximum solubility of taurine in water (room temperature): about 6 weight %
- solubility of taurine itself (taurine not in salt form): up to 6%
SMILES: NCCS(=O)(=O)O [taurine, 2-aminoethanesulfonic acid]
